Assays:
Type in all cases: in vivo, mouse
OVA-IgE antibody [1] = assay: Serum OVA-IgE antibody ELISA, allergic rhinitis mice; settings: serum day 28, oral 10 mg/kg (dexamethasone 2 mg/kg), control 2.7, vehicle 69
Description: (§1) A 0.2 mL dose of 50 μg ovalbumin (OVA) and 2 mg Alum mixture was administered to 6-week-old female Balb/c mice (Japan SLC Inc.) (day 0 of the example). Alum was used as an adjuvant. Seven days later and 14 days later, the Balb/c mice were immunized again with 0.2 mL injections of the above mixture. Starting on day 20, mice were orally treated with 10 mg/kg of norathyriol, 10 mg/kg of mangiferin 8a, 10 mg/kg of tofacitinib (JAK inhibitor), 2 mg/kg of dexamethasone (steroid) and 10 mg/kg of olopatadine (antihistamine) daily for 8 consecutive days. Starting on day 21, 400 μg OVA was administered intranasally, and nose-scratching behavior was measured on day 27. Note that tofacitinib, dexamethasone, and olopatadine are currently in clinical use in allergic rhinitis and were used as control drugs in this example.
Serum was collected from day 28 mice in Examples 6 and 7, and OVA-IgE antibody production was measured by enzyme-linked immunosorbent assay (ELISA). This assay was performed using a mouse OVA-IgE antibody ELISA kit (FUJIFILM Wako).

OVA-IgE antibody [2] = assay: Serum OVA-IgE antibody ELISA, bronchial asthma mice; settings: serum day 28, oral 10 mg/kg (dexamethasone 2 mg/kg), control 2.4, vehicle 66
Description: as §1, with “cough” for “nose-scratching behavior”
Serum was collected from day 28 mice in Examples 14, and OVA-IgE antibody production was measured by enzyme-linked immunosorbent assay (ELISA). This assay was performed using a mouse OVA-IgE antibody ELISAkit (FUJIFILM Wako).

IL-4 [3] = assay: Serum IL-4 ELISA, food allergy mice; settings: OVA food allergy; serum day 28; oral 10 mg/kg (dexamethasone 2 mg/kg); control 210, vehicle 1154
Description: A 0.2 mL dose of 10 μg ovalbumin (OVA) and 1 mg Alum mixture was administered to 6-week-old female Balb/c mice (Japan SLC Inc.) (day 0 of the example). Alum was used as an adjuvant. Seven days later, the Balb/c mice were immunized again with a 0.2 mL injection of the above mixture. Starting on day 14, mice were orally treated with 10 mg/kg of norathyriol, 10 mg/kg of mangiferin 8a, 10 mg/kg of tofacitinib (JAK inhibitor), 2 mg/kg of dexamethasone (steroid) and 10 mg/kg of olopatadine (antihistamine) daily for 14 consecutive days. Starting on day 14, 10 mg OVA was administered orally every other day […], and the frequency of diarrhea was measured after the final administration on day 28. Note that tofacitinib, dexamethasone, and olopatadine are currently in clinical use in food allergy and were used as control drugs in this example.
Serum was collected from day 28 mice in Examples 21, and IL-4 production was measured by enzyme-linked immunosorbent assay (ELISA). This assay was performed using a mouse IL-4 ELISA kit (R&D).

IL-5 = assay: Serum IL-5 ELISA, food allergy mice; settings: OVA food allergy; serum day 28; oral 10 mg/kg (dexamethasone 2 mg/kg); control 135, vehicle 916
Description: A 0.2 mL dose of 10 μg ovalbumin (OVA) and 1 mg Alum mixture was administered to 6-week-old female Balb/c mice (Japan SLC Inc.) (day 0 of the example). Alum was used as an adjuvant. Seven days later, the Balb/c mice were immunized again with a 0.2 mL injection of the above mixture. Starting on day 14, mice were orally treated with 10 mg/kg of norathyriol, 10 mg/kg of mangiferin 8a, 10 mg/kg of tofacitinib (JAK inhibitor), 2 mg/kg of dexamethasone (steroid) and 10 mg/kg of olopatadine (antihistamine) daily for 14 consecutive days. […]
Serum was collected from day 28 mice in Examples 21, and IL-5 production was measured by enzyme-linked immunosorbent assay (ELISA). This assay was performed using a mouse IL-5 ELISA kit (R&D).

IL-4 [4] = assay: Serum IL-4 ELISA, cedar pollinosis mice; settings: serum day 28, oral 10 mg/kg (dexamethasone 2 mg/kg), control 55, vehicle 374
Description: A 0.2 mL dose of 100 μg cedar pollen and 1 mg Alum mixture was administered to 6-week-old female Balb/c mice (Japan SLC Inc.) (day 0 of the example). Alum was used as an adjuvant. Seven days later and 14 days later, the Balb/c mice were immunized again with 0.2 mL injections of the above mixture. Starting on day 20, mice were orally treated with 10 mg/kg of norathyriol, 10 mg/kg of mangiferin 8a, 10 mg/kg of tofacitinib (JAK inhibitor), 2 mg/kg of dexamethasone (steroid) and 10 mg/kg of olopatadine (antihistamine) daily for 8 consecutive days. Starting on day 21, 500 μg cedar pollen was administered intranasally, and nose-scratching behavior was measured on day 27. […]
Serum was collected from day 28 mice in Examples 28 and 29, and IL-4 production was measured by enzyme-linked immunosorbent assay (ELISA). This assay was performed using a mouse IL-4 ELISA kit (R&D).

[5] = system: Balb/c mice with ovalbumin-induced allergic rhinitis; assay: Sneezing, ovalbumin-induced allergic rhinitis mice; settings: OVA allergic rhinitis; oral daily 8 days from day 20, 10 mg/kg (dexamethasone 2 mg/kg); measured day 27; vs vehicle group
Description: as §1, with “sneezing” for “nose-scratching behavior”
The group that was just immunized with OVA is called the subject group, the one that received norathyriol is called the norathyriol group, the one that received mangiferin 8a is called the mangiferin 8a group, the one that received tofacitinib is called the tofacitinib group, the one that received dexamethasone is called the dexamethasone group, and the one that received olopatadine is called the olopatadine group. Each group consisted of five animals.

Row | Structure (SMILES) | amount of OVA-IgE antibody (OVA-IgE antibody [1]) [U/mL] | amount of OVA-IgE antibody (OVA-IgE antibody [2]) [U/mL] | amount of IL-4 (IL-4 [3]) [pg/mL] | amount of IL-5 (IL-5) [pg/mL] | amount of IL-4 (IL-4 [4]) [pg/mL] | number of sneezing [5]
1 | C[C@@H]1C[C@H]2[C@@H]3CCC4=CC(=O)C=C[C@]4(C)[C@@]3(F)[C@@H](O)C[C@]2(C)[C@@]1(O)C(=O)CO [dexamethasone] | 18 | 18 | 415 | 249 | 78 | –
2 | O=c1c2cc(O)c(O)cc2oc2cc(O)cc(O)c12 [norathyriol, 1,3,6,7-tetrahydroxyxanthone] | 36 | 28 | 694 | 475 | 111 | significantly decreased the number of sneezing
3 | CN(C)CC/C=C1/c2ccccc2COc2ccc(CC(=O)O)cc21 [olopatadine] | 67 | 69 | 1054 | 832 | 263 | significantly decreased the number of sneezing
4 | C[C@@H]1CCN(C(=O)CC#N)C[C@@H]1N(C)c1ncnc2[nH]ccc12 [tofacitinib] | 50 | 50 | 1015 | 791 | 213 | significantly decreased the number of sneezing

Reference: patent publication US20260007634A1, “PHARMACEUTICAL COMPOSITIONS FOR THE TREATMENT OF ALLERGIC DISEASES” (KINKI UNIVERSITY, priority 2022, published 2026)
